One test has as its target Ephrin type-A receptor 2 (Homo sapiens, UniProt P29317).
The target in another test is T1, Ephrin type-B receptor 2 (Homo sapiens, UniProt P29323).
T1 sequence (P29323 whole entry): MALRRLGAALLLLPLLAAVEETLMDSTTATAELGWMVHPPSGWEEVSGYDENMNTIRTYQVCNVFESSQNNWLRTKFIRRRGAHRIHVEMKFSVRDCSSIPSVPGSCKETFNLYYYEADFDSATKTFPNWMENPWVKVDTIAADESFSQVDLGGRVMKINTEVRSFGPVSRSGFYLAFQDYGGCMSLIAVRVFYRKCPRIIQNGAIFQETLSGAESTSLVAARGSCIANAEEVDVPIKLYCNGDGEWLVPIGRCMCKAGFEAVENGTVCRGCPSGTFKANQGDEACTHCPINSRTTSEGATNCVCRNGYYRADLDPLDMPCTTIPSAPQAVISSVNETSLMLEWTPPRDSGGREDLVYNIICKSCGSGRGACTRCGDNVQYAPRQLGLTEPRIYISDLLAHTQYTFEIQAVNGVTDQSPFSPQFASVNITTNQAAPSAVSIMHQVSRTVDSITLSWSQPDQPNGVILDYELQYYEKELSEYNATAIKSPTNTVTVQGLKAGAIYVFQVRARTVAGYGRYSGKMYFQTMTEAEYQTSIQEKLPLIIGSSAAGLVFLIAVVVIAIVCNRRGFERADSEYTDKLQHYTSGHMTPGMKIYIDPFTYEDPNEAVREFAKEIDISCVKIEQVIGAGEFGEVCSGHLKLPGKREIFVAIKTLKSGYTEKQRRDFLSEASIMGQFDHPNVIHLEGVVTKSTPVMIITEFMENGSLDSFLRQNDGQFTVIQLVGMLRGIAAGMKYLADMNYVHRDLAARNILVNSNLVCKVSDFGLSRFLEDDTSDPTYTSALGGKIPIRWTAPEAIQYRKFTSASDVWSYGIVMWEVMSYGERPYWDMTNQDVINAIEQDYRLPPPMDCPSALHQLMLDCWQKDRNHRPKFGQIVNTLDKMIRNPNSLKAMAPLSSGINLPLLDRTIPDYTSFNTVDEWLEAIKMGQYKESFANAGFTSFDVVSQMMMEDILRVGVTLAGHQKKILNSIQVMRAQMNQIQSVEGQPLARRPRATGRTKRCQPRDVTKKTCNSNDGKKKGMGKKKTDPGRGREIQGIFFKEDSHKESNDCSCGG

The target in test [1] is Glycogen synthase kinase-3 beta (Homo sapiens, UniProt P49841).
Test [2] addresses T2, Serine/threonine-protein kinase NLK (Homo sapiens, UniProt Q9UBE8).
T2 sequence (Q9UBE8 whole entry): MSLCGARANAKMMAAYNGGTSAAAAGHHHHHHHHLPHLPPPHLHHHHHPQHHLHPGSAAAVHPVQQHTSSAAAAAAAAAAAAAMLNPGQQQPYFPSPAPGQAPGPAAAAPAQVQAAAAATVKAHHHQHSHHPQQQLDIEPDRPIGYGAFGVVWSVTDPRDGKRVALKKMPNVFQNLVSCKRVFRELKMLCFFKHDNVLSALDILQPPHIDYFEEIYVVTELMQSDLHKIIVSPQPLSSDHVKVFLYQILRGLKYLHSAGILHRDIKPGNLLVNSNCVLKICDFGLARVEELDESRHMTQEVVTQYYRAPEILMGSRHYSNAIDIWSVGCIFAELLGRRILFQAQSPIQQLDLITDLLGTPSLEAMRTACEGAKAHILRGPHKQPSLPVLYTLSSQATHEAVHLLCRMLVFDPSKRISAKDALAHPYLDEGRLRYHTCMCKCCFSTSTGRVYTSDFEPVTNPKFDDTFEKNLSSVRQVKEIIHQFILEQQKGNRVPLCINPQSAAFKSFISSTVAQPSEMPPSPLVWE

Test [3] deals with Protein-tyrosine kinase 6 (Homo sapiens, UniProt Q13882).
The target of test [4] is Serine/threonine-protein kinase 16 (Homo sapiens, UniProt O75716).
For test [5], the target named is Inosine-5'-monophosphate dehydrogenase 2 (Homo sapiens, UniProt P12268).
The target in test [6] is T3, ATP-dependent 6-phosphofructokinase, platelet type (Homo sapiens, UniProt Q01813).
T3 sequence (Q01813 whole entry): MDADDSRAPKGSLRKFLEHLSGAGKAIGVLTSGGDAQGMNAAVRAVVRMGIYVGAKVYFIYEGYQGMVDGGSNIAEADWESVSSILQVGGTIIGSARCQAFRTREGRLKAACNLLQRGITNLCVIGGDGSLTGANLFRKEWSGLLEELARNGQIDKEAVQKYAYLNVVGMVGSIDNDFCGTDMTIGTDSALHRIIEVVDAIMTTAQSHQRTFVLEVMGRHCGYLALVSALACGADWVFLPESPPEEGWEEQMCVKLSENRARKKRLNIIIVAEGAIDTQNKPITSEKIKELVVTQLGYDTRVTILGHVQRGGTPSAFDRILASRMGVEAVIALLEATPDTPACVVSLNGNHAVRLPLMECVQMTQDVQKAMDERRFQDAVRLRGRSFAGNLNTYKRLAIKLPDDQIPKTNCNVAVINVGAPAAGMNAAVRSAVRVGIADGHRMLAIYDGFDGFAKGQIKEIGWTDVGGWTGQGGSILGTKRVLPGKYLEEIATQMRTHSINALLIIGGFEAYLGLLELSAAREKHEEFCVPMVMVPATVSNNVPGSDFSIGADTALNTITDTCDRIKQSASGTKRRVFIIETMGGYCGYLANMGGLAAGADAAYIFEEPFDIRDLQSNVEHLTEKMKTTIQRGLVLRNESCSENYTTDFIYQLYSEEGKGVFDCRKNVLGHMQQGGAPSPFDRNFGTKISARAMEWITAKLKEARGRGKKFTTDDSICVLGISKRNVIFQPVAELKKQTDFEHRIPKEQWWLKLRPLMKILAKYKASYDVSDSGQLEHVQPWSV

For test [7], the target named is DNA topoisomerase 2-alpha (Homo sapiens, UniProt P11388).

As usually defined, the Kd is the concentration at which binding is half-saturated.

Active and inactive are the calls of the source. Cut-off read from the data, not from the text of the source, for most assays here: actives have a measured Kd and inactives only a lower limit. A value given as a limit tells only on which side of the number the result lay.
Note: in the data inactive means no Kd found up to 30 µM.

Protein-tyrosine kinase 6, sequence (Q13882 whole entry): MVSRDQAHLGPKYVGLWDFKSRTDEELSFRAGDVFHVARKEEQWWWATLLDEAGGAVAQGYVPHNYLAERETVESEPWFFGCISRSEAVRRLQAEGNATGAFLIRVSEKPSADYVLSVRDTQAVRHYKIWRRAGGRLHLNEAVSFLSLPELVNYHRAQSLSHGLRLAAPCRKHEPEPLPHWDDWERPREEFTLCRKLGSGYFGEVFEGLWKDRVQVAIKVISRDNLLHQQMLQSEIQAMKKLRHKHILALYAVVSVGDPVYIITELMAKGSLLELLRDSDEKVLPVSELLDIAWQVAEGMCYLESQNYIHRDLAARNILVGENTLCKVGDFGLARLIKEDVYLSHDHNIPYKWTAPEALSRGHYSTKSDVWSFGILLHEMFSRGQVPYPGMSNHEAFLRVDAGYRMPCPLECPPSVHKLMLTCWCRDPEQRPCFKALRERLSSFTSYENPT
Glycogen synthase kinase-3 beta, sequence (P49841 whole entry): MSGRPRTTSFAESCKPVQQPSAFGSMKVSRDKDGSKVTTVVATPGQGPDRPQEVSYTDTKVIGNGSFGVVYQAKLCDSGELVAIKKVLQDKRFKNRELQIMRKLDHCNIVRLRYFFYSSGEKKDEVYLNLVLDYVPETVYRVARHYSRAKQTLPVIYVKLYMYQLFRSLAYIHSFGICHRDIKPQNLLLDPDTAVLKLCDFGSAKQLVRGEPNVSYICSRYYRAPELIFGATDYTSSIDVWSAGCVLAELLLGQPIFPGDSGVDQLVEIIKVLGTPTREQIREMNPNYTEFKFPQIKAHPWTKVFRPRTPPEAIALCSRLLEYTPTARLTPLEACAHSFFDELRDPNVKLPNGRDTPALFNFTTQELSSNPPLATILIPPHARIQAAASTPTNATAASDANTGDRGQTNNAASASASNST
Ephrin type-A receptor 2, sequence (P29317 whole entry): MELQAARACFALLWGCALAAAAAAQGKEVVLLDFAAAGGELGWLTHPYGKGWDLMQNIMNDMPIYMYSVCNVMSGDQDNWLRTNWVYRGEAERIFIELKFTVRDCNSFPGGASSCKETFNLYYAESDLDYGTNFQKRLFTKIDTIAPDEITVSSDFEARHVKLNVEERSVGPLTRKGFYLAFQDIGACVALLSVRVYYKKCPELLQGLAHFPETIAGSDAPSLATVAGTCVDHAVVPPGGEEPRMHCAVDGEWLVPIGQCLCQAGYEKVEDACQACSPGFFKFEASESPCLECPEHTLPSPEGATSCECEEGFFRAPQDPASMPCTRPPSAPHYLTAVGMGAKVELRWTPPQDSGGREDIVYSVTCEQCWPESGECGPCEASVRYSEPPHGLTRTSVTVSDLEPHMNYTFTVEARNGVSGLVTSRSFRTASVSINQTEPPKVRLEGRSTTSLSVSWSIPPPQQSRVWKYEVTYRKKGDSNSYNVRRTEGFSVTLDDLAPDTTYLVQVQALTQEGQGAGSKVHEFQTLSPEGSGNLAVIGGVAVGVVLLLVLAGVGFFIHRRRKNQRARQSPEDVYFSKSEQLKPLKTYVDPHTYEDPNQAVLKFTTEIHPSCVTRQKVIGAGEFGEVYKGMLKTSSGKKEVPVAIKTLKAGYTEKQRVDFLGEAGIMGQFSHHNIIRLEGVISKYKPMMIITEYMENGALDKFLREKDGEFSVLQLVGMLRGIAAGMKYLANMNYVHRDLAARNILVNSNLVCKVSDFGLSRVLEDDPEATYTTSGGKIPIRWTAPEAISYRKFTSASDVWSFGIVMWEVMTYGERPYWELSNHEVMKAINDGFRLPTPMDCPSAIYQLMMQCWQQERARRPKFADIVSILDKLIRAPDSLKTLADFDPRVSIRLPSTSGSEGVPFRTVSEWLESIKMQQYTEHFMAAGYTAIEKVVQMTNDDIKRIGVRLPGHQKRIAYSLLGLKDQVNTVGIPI
DNA topoisomerase 2-alpha, sequence (P11388 whole entry): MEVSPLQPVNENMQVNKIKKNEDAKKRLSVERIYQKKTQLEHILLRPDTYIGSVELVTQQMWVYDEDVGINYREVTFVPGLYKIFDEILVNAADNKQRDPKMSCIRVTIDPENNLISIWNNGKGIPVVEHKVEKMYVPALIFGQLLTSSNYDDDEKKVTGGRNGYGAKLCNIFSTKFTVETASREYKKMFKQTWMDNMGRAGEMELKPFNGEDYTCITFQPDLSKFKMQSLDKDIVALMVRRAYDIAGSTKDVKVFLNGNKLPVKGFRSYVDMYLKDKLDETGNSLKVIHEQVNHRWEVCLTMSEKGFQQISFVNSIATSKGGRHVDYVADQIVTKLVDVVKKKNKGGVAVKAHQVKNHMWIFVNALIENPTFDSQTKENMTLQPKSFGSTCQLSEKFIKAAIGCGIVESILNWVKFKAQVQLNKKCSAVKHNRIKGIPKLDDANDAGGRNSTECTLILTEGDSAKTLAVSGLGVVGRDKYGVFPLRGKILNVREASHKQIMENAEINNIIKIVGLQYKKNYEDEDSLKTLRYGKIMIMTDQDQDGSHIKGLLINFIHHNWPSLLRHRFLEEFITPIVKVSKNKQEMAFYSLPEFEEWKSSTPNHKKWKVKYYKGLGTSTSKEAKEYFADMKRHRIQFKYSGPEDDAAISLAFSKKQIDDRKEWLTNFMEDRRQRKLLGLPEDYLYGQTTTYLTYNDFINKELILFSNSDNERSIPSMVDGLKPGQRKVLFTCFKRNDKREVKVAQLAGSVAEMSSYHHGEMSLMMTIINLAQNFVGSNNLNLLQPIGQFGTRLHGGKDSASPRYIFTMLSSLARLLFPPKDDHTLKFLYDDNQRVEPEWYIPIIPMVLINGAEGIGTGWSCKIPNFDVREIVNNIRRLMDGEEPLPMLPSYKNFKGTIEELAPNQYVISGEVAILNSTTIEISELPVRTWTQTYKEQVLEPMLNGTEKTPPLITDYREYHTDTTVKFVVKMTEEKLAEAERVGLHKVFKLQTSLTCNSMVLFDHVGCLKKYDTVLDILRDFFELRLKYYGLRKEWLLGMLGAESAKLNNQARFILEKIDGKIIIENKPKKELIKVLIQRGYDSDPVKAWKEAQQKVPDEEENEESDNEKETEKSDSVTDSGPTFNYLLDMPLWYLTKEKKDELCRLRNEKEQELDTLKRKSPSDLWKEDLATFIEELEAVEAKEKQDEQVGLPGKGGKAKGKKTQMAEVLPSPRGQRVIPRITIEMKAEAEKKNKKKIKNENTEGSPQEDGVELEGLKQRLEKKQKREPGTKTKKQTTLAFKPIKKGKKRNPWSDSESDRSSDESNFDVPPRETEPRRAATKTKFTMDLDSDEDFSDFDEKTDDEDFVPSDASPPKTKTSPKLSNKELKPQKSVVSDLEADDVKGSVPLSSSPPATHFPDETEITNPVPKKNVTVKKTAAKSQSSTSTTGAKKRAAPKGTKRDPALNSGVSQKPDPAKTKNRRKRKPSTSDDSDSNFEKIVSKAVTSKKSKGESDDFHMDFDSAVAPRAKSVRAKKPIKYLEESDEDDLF
Serine/threonine-protein kinase 16, sequence (O75716 whole entry): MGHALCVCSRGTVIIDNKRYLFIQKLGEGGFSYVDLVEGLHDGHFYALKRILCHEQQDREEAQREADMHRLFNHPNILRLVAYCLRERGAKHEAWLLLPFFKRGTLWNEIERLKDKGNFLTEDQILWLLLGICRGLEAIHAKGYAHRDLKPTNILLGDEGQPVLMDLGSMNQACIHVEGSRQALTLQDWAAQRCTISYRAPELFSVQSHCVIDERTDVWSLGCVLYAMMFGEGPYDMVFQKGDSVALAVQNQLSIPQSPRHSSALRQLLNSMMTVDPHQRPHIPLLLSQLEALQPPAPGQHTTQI

On to `Cc1ccc(NC(=O)c2ccc(CN3CC[C@H](N(C)C)C3)c(C(F)(F)F)c2)cc1Nc1nccc(-c2cncnc2)n1` [BAFETINIB], for which the Kd at Ephrin type-A receptor 2 is 0.09 µM (active); at Ephrin type-B receptor 2, 53.2 µM (active); in test [1], > 30 µM (inactive); in [2], > 30 µM (inactive); in test [3], > 30 µM (inactive); in [4], > 30 µM (inactive).
Turning to `O=C(Nc1cccc(Cl)c1)Nc1ncc(CCNc2ncnc3ccsc23)s1` [SNS-314], the Kd (on Ephrin type-B receptor 2; in [5]; in test [6]; in test [4]; in [7]) was > 30 µM (inactive) in each case.
Regarding `Cc1cn(-c2cc(NC(=O)c3ccc(C)c(Nc4nccc(-c5cccnc5)n4)c3)cc(C(F)(F)F)c2)cn1` [NILOTINIB], the Kd in [5], in test [6] and in test [7] was > 30 µM (inactive) in each case.
As to `C[C@@H]1CN(Cc2ccc(F)cc2)[C@@H](C)CN1C(=O)c1cc2c(C(=O)C(=O)N(C)C)cn(C)c2cc1Cl` [TALMAPIMOD], the Kd (at Ephrin type-A receptor 2; at Ephrin type-B receptor 2; in [1]; in test [2]; in test [6]; in test [3]) was > 30 µM (inactive) in each case. Also, the Kd in test [4] is > 30 µM (inactive).
With `Nc1nc(N)c2nc(-c3cccc(O)c3)c(-c3cccc(O)c3)nc2n1` [TG100-115], the Kd in test [5], in test [6], in test [3] and in test [7] was > 30 µM (inactive) throughout.
On to `CN1CCN(c2ccc3nc(-c4c(N)c5c(F)cccc5[nH]c4=O)[nH]c3c2)CC1` [DOVITINIB], for which the Kd in test [5] and in test [6] was > 30 µM (inactive) in each case.
As for `Cc1cc(Nc2cc(N3CCN(C)CC3)nc(/C=C/c3ccccc3)n2)n[nH]1` [ENMD-2076], the Kd at Ephrin type-B receptor 2 is > 30 µM (inactive); in test [5], > 30 µM (inactive); in test [2], > 30 µM (inactive); in [6] it was > 30 µM (inactive); in test [4], 0.702 µM (active); in [7], > 30 µM (inactive).
As for `CNC(=O)c1ccc(-c2cnc3ncc(Cc4ccc5ncccc5c4)n3n2)cc1F` [CAPMATINIB], the Kd (on Ephrin type-A receptor 2; on Ephrin type-B receptor 2; in test [5]; in test [2]; in test [3]; in [4]) was > 30 µM (inactive) throughout. Also, in [7], the Kd is > 30 µM (inactive).
In the case of `CNC(=O)c1ccc(C)c(-n2c(C)cc(OCc3ccc(F)cc3F)c(Br)c2=O)c1` [PH-797804], the Kd (at Ephrin type-A receptor 2; on Ephrin type-B receptor 2; in test [1]; in [5]; in [2]; in [6]) was > 30 µM (inactive) each time. For the same molecule, the Kd in [3] and in [4] was > 30 µM (inactive) throughout.
For the molecule `Cc1nc(N)sc1-c1ccnc(Nc2ccc(N3CCOCC3)cc2)n1` [CYC-116], the Kd in test [5] was > 30 µM (inactive); in [6], > 30 µM (inactive); in test [4], 0.21 µM (active); in test [7], > 30 µM (inactive).
For the molecule `CN1CCC(COc2cnc(-c3cccc(Cn4nc(-c5cccc(C#N)c5)ccc4=O)c3)nc2)CC1` [TEPOTINIB], the Kd (at Ephrin type-A receptor 2; at Ephrin type-B receptor 2; in [1]; in test [5]; in test [2]; in test [6]) was > 30 µM (inactive) in each case. Also, the Kd in test [3] and in test [4] was > 30 µM (inactive) throughout.
For the molecule `CCn1c(-c2nonc2N)nc2c(C#CC(C)(C)O)ncc(OC[C@H]3CCCNC3)c21` [GSK-690693], the Kd in test [5], in test [6] and in [7] was > 30 µM (inactive) each time.
As to `OCCn1cc(-c2cnc3nnn(Cc4ccc5ncccc5c4)c3n2)cn1` [PF-04217903], the Kd (on Ephrin type-A receptor 2; at Ephrin type-B receptor 2; in [5]; in [2]; in test [6]; in test [3]) was > 30 µM (inactive) in each case. In addition, the Kd in test [4] and in [7] was > 30 µM (inactive) each time.
Take `Cc1cc2c(F)c(Oc3ncnn4cc(OC[C@@H](C)OC(=O)[C@H](C)N)c(C)c34)ccc2[nH]1` [BRIVANIB ALANINATE]: the Kd (on Ephrin type-A receptor 2; at Ephrin type-B receptor 2; in test [1]; in test [2]; in test [6]; in test [3]) was > 30 µM (inactive) throughout. The Kd in test [4] is > 30 µM (inactive).
For `O=c1sn(-c2cccc3ccccc23)c(=O)n1Cc1ccccc1` [TIDEGLUSIB], the Kd (on Ephrin type-A receptor 2; on Ephrin type-B receptor 2; in test [5]; in test [2]; in test [6]; in test [3]) was > 30 µM (inactive) throughout. For the same molecule, the Kd in test [4] and in test [7] was > 30 µM (inactive) in each case.
Regarding `Cn1cc(-c2ccc(F)c(C(F)(F)F)c2)nc1C1CCN(c2ncnc3[nH]ncc23)CC1` [LY-2584702], the Kd (on Ephrin type-A receptor 2; at Ephrin type-B receptor 2; in test [5]; in test [2]; in [6]; in [3]) was > 30 µM (inactive) throughout. In addition, the Kd in test [4] was > 30 µM (inactive).

These data come from ChEMBL document CHEMBL3991601, “The target landscape of clinical kinase drugs” (Science, 2017).
